Laboratory results: PubChem BioAssay (NCI)
Several values for one entry are separate records, joined by “and”; a condition that tells them apart may be missing. Equal entries are not always repeated.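 Briefly, cells in 96-well plates were exposed to five compound concentrations for 48 h, and endpoints were estimated by linear interpolation. GI50: concentration for 50% inhibition of growth. TGI marks complete inhibition of growth.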

Key:
Experiment in all cases: NCI-60 cell line screen, 48 h
786-0 renal = system: 786-0 renal
A498 renal = system: A498 renal
A549 NSCLC = system: A549 NSCLC
ACHN renal = system: ACHN renal
BT-549 breast = system: BT-549 breast
CAKI-1 renal = system: CAKI-1 renal
CCRF-CEM leukemia = system: CCRF-CEM leukemia
COLO 205 colon = system: COLO 205 colon
DU-145 prostate = system: DU-145 prostate
EKVX NSCLC = system: EKVX NSCLC
HCC-2998 colon = system: HCC-2998 colon
HCT-116 colon = system: HCT-116 colon
HCT-15 colon = system: HCT-15 colon
HL-60(TB) leukemia = system: HL-60(TB) leukemia
HOP-62 NSCLC = system: HOP-62 NSCLC
HOP-92 NSCLC = system: HOP-92 NSCLC
HS 578T breast = system: HS 578T breast
HT29 colon = system: HT29 colon
IGROV1 ovarian = system: IGROV1 ovarian
K-562 leukemia = system: K-562 leukemia
KM12 colon = system: KM12 colon
LOX IMVI melanoma = system: LOX IMVI melanoma
M14 melanoma = system: M14 melanoma
MALME-3M melanoma = system: MALME-3M melanoma
MCF7 breast = system: MCF7 breast
MDA-MB-231 breast = system: MDA-MB-231 breast
MDA-MB-435 = system: MDA-MB-435
MOLT-4 leukemia = system: MOLT-4 leukemia
NCI-H226 lung = system: NCI-H226 lung

With Cc1ccc(-n2nc(C(C)(C)C)cc2NC(=O)NCc2cc(F)ccc2Oc2ccc3c(cnn3CCO)c2)cc1 the GI50 (786-0 renal) was > 10 µM and 8.58 µM, the TGI (786-0 renal) was greater than 100 µM and the GI50 (A498 renal) was 1.02 µM and 1.48 µM. For the same molecule, the TGI (A498 renal) was 9.34 µM and 6.97 µM, the GI50 (A549 NSCLC) was > 10 µM and 11.7 µM and the TGI (A549 NSCLC) was greater than 100 µM. For the same molecule, the GI50 (ACHN renal) was 4.3 µM and 2.79 µM, the TGI (ACHN renal) was greater than 56.2 µM and the GI50 (BT-549 breast) was > 10 µM and 4.68 µM. The TGI (BT-549 breast) was greater than 96.1 µM, the GI50 (CAKI-1 renal) was 9.61 µM and 6.5 µM and the TGI (CAKI-1 renal) was greater than 100 µM. The GI50 (CCRF-CEM leukemia) was > 10 µM and 3.38 µM, the TGI (CCRF-CEM leukemia) was greater than 69.7 µM and the GI50 (COLO 205 colon) was 0.795 µM and 1.86 µM. The TGI (COLO 205 colon) was > 10 µM and 10.9 µM, the GI50 (DU-145 prostate) was > 10 µM and 7.2 µM and the TGI (DU-145 prostate) was greater than 100 µM. For the same molecule, the GI50 (EKVX NSCLC) was greater than 10 µM, the TGI (EKVX NSCLC) was greater than 10 µM and the GI50 (HCC-2998 colon) was > 10 µM and 5.39 µM. For the same molecule, the TGI (HCC-2998 colon) was greater than 48.8 µM, the GI50 (HCT-116 colon) was 2.34 µM and 2.46 µM and the TGI (HCT-116 colon) was greater than 36.3 µM. The GI50 (HCT-15 colon) was > 10 µM and 8.9 µM, the TGI (HCT-15 colon) was greater than 100 µM and the GI50 (HL-60(TB) leukemia) was 1.41 µM and 2.09 µM. The TGI (HL-60(TB) leukemia) was > 10 µM and 10.1 µM, the GI50 (HOP-62 NSCLC) was > 10 µM and 8.95 µM and the TGI (HOP-62 NSCLC) was greater than 81.5 µM. For the same molecule, the GI50 (HOP-92 NSCLC) was 8.06 µM and 5.1 µM, the TGI (HOP-92 NSCLC) was > 10 µM and 95.2 µM and the GI50 (HS 578T breast) was > 10 µM and 10.1 µM. For the same molecule, the TGI (HS 578T breast) was greater than 100 µM, the GI50 (HT29 colon) was 0.718 µM and 2.44 µM and the TGI (HT29 colon) was > 10 µM and 26.6 µM. For the same molecule, the GI50 (IGROV1 ovarian) was 2.59 µM and 4.69 µM, the TGI (IGROV1 ovarian) was greater than 100 µM and the GI50 (K-562 leukemia) was 0.00802 µM and 0.0185 µM. For the same molecule, the TGI (K-562 leukemia) was greater than 10 µM, the GI50 (KM12 colon) was 0.611 µM and 1.22 µM and the TGI (KM12 colon) was greater than 35.8 µM. For the same molecule, the GI50 (LOX IMVI melanoma) was 0.836 µM and 2.37 µM, the TGI (LOX IMVI melanoma) was greater than 38.1 µM and the GI50 (M14 melanoma) was 0.649 µM and 1.31 µM. The TGI (M14 melanoma) was greater than 28.5 µM, the GI50 (MALME-3M melanoma) was 0.396 µM and 0.305 µM and the TGI (MALME-3M melanoma) was > 10 µM and 1.73 µM. For the same molecule, the GI50 (MCF7 breast) was 3.55 µM and 3.26 µM, the TGI (MCF7 breast) was > 10 µM and 51.7 µM and the GI50 (MDA-MB-231 breast) was 2.6 µM and 2.57 µM. For the same molecule, the TGI (MDA-MB-231 breast) was greater than 58.9 µM, the GI50 (MDA-MB-435) was 3.37 µM and 2.75 µM and the TGI (MDA-MB-435) was greater than 62.5 µM. For the same molecule, the GI50 (MOLT-4 leukemia) was 9.91 µM and 2.05 µM, the TGI (MOLT-4 leukemia) was > 10 µM and 5.23 µM and the GI50 (NCI-H226 lung) was 0.562 µM and 2.75 µM. It also gave a TGI (NCI-H226 lung) greater than 100 µM.
